This is an account of results in patent US4808584A, “Quinolinecarboxylic acid derivatives and antibacterial agent containing the same” (Kanebo, Ltd., priority 1987, dated 1989).

Holding throughout (experiment): Minimum inhibitory concentration (MIC)
Format in all cases: cell-based

The subject of test [1] is Proteus mirabilis IFO 3849. As to conditions: IFO3849; Proteus mirabilis IFO 3849, Gram -. Here is the method:
(§1) The compounds of the present invention (A, C, E, F, G, H and I) and ofloxacin as control were dissolved in 0.1N aqueous potassium hydroxide to prepare a solution of 5000 μg/ml in concentration. The compounds of the present invention (B, D and J) were dissolved in sterilized distilled water to prepare a solution of 5000 μg/ml in concentration. Each solution was diluted with sterilized distilled water to prepare a standard solution with a concentration of each test compound: 1000 μg/ml. The test was carried out by a method approved by Japan Society of Chemotherapy [cf. Chemotherapy, 29, 76-79 (1981)(TOKYO)].

For test [2], the system named is Enterobacter aerogenes ATCC 13048. The conditions noted are these: for MIC: Klebsiella aerogenes, ATCC13048, Enterobacter aerogenes ATCC 13048, Gram -. On the procedure: as §1
Test [3] concerns Micrococcus luteus ATCC 9341. As to conditions: ATCC9341; Micrococcus luteus ATCC 9341, Gram +. On the procedure: as §1
The next test concerns Proteus vulgaris OX-19. Here is the method: as §1
In a further test the test system is Enterobacter cloacae 963. The conditions noted are these: Enterobacter cloacae 963, Gram -. On the procedure: as §1
For test [4], the system named is Morganella morganii IFO 3848. The conditions noted are these: IFO3848; Morganella morganii IFO 3848, Gram -. On the procedure:
as §1

The test system of test [5] is Bacillus subtilis ATCC 6633. On the procedure:
as §1

The test system of test [6] is Staphylococcus epidermidis IAM-1296. As to conditions: for MIC: Staphylococcus epidermidis, IAM1296, Staphylococcus epidermidis IAM-1296, Gram +. Here is the method:
as §1

Test [7] concerns Pseudomonas aeruginosa E-2. As to conditions: E2; Pseudomonas aeruginosa E-2, Gram -. Here is the method:
as §1

In a further test the test system is Escherichia coli KC-14. The conditions noted are these: KC14; Escherichia coli KC-14, Gram -. Here is the method: as §1
The subject of test [8] is Staphylococcus aureus FDA 209P JC-1. The conditions noted are these: FDA209P; Staphylococcus aureus FDA 209P JC-1, Gram +. On the procedure:
as §1

Test [9] relates to Escherichia coli NIHJ JC-2. As to conditions: NIHJJC2; Escherichia coli NIHJ JC-2, Gram -. Here is the method: as §1
Test [10] concerns Serratia marcescens IAM 1184. As to conditions: Serratia marcescens, IAM1184, Serratia marcescens IAM 1184, Gram -. On the procedure:
as §1

In test [11] the test system is Salmonella typhimurium IID 971. The conditions noted are these: Salmonella typhimurium IID 971, Gram -; for MIC: Salmonella enterica, read-out: Minimum inhibitory concentration (MIC). On the procedure: as §1
In test [12] the test system is Staphylococcus aureus IID 803. Here is the method: as §1
Test [13] relates to Streptococcus faecalis IID 682. The conditions noted are these: Enterococcus faecalis, IID682, Streptococcus faecalis IID 682, Gram +. On the procedure: as §1
The test system of test [14] is Acinetobacter calcoaceticus AC 54. The conditions noted are these: for MIC: Acinetobacter calcoaceticus, AC54, Acinetobacter calcoaceticus AC 54, Gram -. Here is the method:
as §1

Test [15] relates to Pseudomonas aeruginosa NCTC 10490. The conditions noted are these: for MIC: Pseudomonas aeruginosa, NCTC10490, Pseudomonas aeruginosa NCTC 10490, Gram -. Here is the method:
as §1

Test [16] deals with Pseudomonas aeruginosa IFO 3445. As to conditions: Pseudomonas aeruginosa, IFO3445, Pseudomonas aeruginosa IFO 3445, Gram -. Here is the method:
as §1

The test system of the next test is Shigella sonnei EW-33. The conditions noted are these: EW33; Shigella sonnei EW-33, Gram -. Here is the method:
as §1

Test [17] concerns Citrobacter freundii NIHJ 10018-68. The conditions noted are these: NIHJ10018; Citrobacter freundii NIHJ 10018-68, Gram -. Here is the method:
as §1

For test [18], the system named is Klebsiella pneumoniae PCI 602. The conditions noted are these: for MIC: Klebsiella pneumoniae, PCI602, Klebsiella pneumoniae PCI 602, Gram -, read-out: Minimum inhibitory concentration (MIC). Here is the method: as §1
The mark [19] stands for this setting: OX19, Proteus vulgaris OX-19, Gram -, read-out: Minimum inhibitory concentration (MIC).
Setting [20] is: ATCC6633, Bacillus subtilis ATCC 6633, Gram +, read-out: Minimum inhibitory concentration (MIC).
Where [21] appears, read: IID803, Staphylococcus aureus IID 803, Gram +, read-out: Minimum inhibitory concentration (MIC).

Values after ≈ are worked out from the molar mass of the structure shown. Counter-ions that a name gives are not always drawn. Like-named read-outs stand apart in the source and are kept apart here.

Consider `CN1CCN(c2c(F)cc3c(=O)c(C(=O)O)c4scc5n4c3c2OC5)CC1` [Compound (A), 9,1-Epoxymethano-7-fluoro-8-(4-methyl-1-piperazinyl)-5-oxo-5H-thiazolo[3,2-a]quinoline-4-carboxylic acid], for which the MIC came out at 0.2 µg/mL (≈ 0.514 µM) in [1]; 0.1 µg/mL (≈ 0.257 µM) in test [2]; 1.56 µg/mL in test [3]; 0.05 µg/mL (≈ 0.128 µM) in the test with Proteus vulgaris OX-19 (setting [19]); 0.1 µg/mL (≈ 0.257 µM) in the test on Enterobacter cloacae 963; 0.1 µg/mL (≈ 0.257 µM) in test [4]. Also, the MIC in test [5] (setting [20]) was found to be 0.1 µg/mL (≈ 0.257 µM); in [6], 0.39 µg/mL; in test [7], 0.78 µg/mL (≈ 2 µM); with Escherichia coli KC-14, 0.1 µg/mL (≈ 0.257 µM); in test [8], 0.2 µg/mL; in [9], 0.1 µg/mL (≈ 0.257 µM). The MIC in [10] was 0.2 µg/mL (≈ 0.514 µM); in test [11] it was 0.05 µg/mL (≈ 0.128 µM); in [12] (setting [21]), 0.2 µg/mL (≈ 0.514 µM); in test [13], 0.39 µg/mL; in test [14], 0.2 µg/mL (≈ 0.514 µM); in test [15] it was 0.78 µg/mL (≈ 2 µM). Further, the results for the MIC (in test [16]; in the test with Shigella sonnei EW-33; in [17]) were 0.78 µg/mL (≈ 2 µM), 0.05 µg/mL (≈ 0.128 µM) and 0.2 µg/mL (≈ 0.514 µM), respectively.
On to `O=C(O)c1c(=O)c2cc(F)c(N3CCNCC3)c3c2n2c(csc12)CO3` [Compound (C), 9,1-Epoxymethano-7-fluoro-8-(1-piperazinyl)-5-oxo-5H-thiazolo[3,2-a]quinoline-4-carboxylic acid], for which the MIC in test [1] stood at 0.2 µg/mL (≈ 0.533 µM); in test [2], 0.1 µg/mL (≈ 0.266 µM); in [3], 3.13 µg/mL; in the test on Proteus vulgaris OX-19 (setting [19]) it was 0.1 µg/mL (≈ 0.266 µM); with Enterobacter cloacae 963, 0.2 µg/mL (≈ 0.533 µM); in test [4] it was 0.1 µg/mL (≈ 0.266 µM). The MIC in [5] (setting [20]) turned out to be 0.2 µg/mL (≈ 0.533 µM); in [6], 0.78 µg/mL; in [7], 0.78 µg/mL (≈ 2.08 µM); in the test on Escherichia coli KC-14 it was 0.1 µg/mL (≈ 0.266 µM); in [8], 0.39 µg/mL; in [9], 0.1 µg/mL (≈ 0.266 µM). The MIC in [10] was 0.39 µg/mL (≈ 1.04 µM); in test [11] it was 0.05 µg/mL (≈ 0.133 µM); in test [18], 0.05 µg/mL (≈ 0.133 µM); in [12] (setting [21]), 0.39 µg/mL (≈ 1.04 µM); in [13], 0.78 µg/mL; in [14] it was 0.78 µg/mL (≈ 2.08 µM). Moreover, the MIC in test [15] came to 0.39 µg/mL (≈ 1.04 µM); in test [16] it was 0.78 µg/mL (≈ 2.08 µM); against Shigella sonnei EW-33 it was 0.05 µg/mL (≈ 0.133 µM); in test [17], 0.2 µg/mL (≈ 0.533 µM).
On to `O=C(O)c1c(=O)c2cc(F)c(N3CCNCC3)c3c2n2c(csc12)CO3` [Compound (D), 9,1-Epoxymethano-7-fluoro-8-(1-piperazinyl)-5-oxo-5H-thiazolo[3,2-a]quinoline-4-carboxylic acid.hydrochloride.1/2hydrate], for which the “Minimum inhibitory concentration (MIC)” value in test [2] (Enterobacter aerogenes ATCC 13048, Gram -) was 0.20 µg/mL; in test [6] (Staphylococcus epidermidis IAM-1296, Gram +), 1.56 µg/mL; in [11], 0.10 µg/mL; in [18] (Klebsiella pneumoniae PCI 602, Gram -), 0.025 µg/mL; in [14] (Acinetobacter calcoaceticus AC 54, Gram -), 1.56 µg/mL; in [15] (Pseudomonas aeruginosa NCTC 10490, Gram -), 0.78 µg/mL.
For `CC1CN(c2c(F)cc3c(=O)c(C(=O)O)c4scc5n4c3c2OC5)CCN1` (stereo not shown) [Compound (E), 9,1-Epoxymethano-7-fluoro-8-(3-methyl-1-piperazinyl)-5-oxo-5H-thiazolo[3,2-a]quinoline-4-carboxylic acid.1/4hydrate], the MIC in test [1] is 0.2 µg/mL; in test [2] it was 0.1 µg/mL; in test [3] it was 3.13 µg/mL; in the test on Proteus vulgaris OX-19 (Proteus vulgaris, OX19, read-out: Minimum inhibitory concentration (MIC)), 0.05 µg/mL; in the test with Enterobacter cloacae 963 it was 0.2 µg/mL; in test [4] it was 0.1 µg/mL. Besides, the MIC in test [5] (setting [20]) stood at 0.1 µg/mL; in test [6] it was 0.78 µg/mL; in test [7] it was 0.78 µg/mL; in the test with Escherichia coli KC-14 it was 0.1 µg/mL; in [8], 0.2 µg/mL; in [9], 0.2 µg/mL. The MIC in [10] was 0.39 µg/mL; in [11] it was 0.1 µg/mL; in test [18], 0.025 µg/mL; in [12] (setting [21]) it was 0.2 µg/mL; in [13], 0.78 µg/mL; in [14], 0.78 µg/mL. The MIC in test [15] amounted to 0.78 µg/mL; in [16], 1.56 µg/mL; against Shigella sonnei EW-33, 0.1 µg/mL; in [17] it was 0.78 µg/mL.
In the case of `O=C(O)c1c(=O)c2cc(F)c(N3CCN(O)CC3)c3c2n2c(csc12)CO3` [Compound (F), 9,1-Epoxymethano-7-fluoro-8-(4-hydroxy-1-piperazinyl)-5-oxo-5H-thiazolo[3,2-a]quinoline-4-carboxylic acid.1/4hydrate], the MIC in test [1] came to 0.2 µg/mL; in test [2], 0.1 µg/mL; in test [3], 6.25 µg/mL; in the test on Proteus vulgaris OX-19 (setting [19]) it was 0.05 µg/mL; in the test with Enterobacter cloacae 963 it was 0.2 µg/mL; in test [4], 0.1 µg/mL. In addition, the MIC was 0.1 µg/mL in test [5] (Bacillus subtilis, ATCC6633, read-out: Minimum inhibitory concentration (MIC)); 1.56 µg/mL in test [6]; 1.56 µg/mL in test [7]; 0.1 µg/mL in the test with Escherichia coli KC-14; 0.39 µg/mL in [8]; 0.2 µg/mL in test [9]. In addition, the MIC was 0.78 µg/mL in [10]; 0.05 µg/mL in test [11]; 0.025 µg/mL in test [18]; 0.39 µg/mL in [12] (setting [21]); 1.56 µg/mL in test [13]; 1.56 µg/mL in [14]. The MIC in test [15] came to 0.78 µg/mL; in [16], 1.56 µg/mL; in the test on Shigella sonnei EW-33 it was 0.05 µg/mL; in test [17], 0.2 µg/mL.
Take `O=C(O)c1c(=O)c2cc(F)c(N3CCCC3)c3c2n2c(csc12)CO3` [Compound (G), 9,1-Epoxymethano-7-fluoro-8-(1-pyrrolidinyl)-5-oxo-5H-thiazolo[3,2-a]quinoline-4-carboxylic acid]: the MIC in test [1] stood at 0.39 µg/mL (≈ 1.08 µM); in test [2], 0.1 µg/mL (≈ 0.277 µM); in test [3] it was 3.13 µg/mL; in the test with Proteus vulgaris OX-19 (setting [19]) it was 0.1 µg/mL (≈ 0.277 µM); against Enterobacter cloacae 963, 0.39 µg/mL (≈ 1.08 µM); in test [4], 0.2 µg/mL (≈ 0.555 µM). The MIC is 0.025 µg/mL (≈ 0.0694 µM) in test [5] (setting [20]); 0.05 µg/mL in test [6]; 1.56 µg/mL (≈ 4.33 µM) in test [7]; 0.2 µg/mL (≈ 0.555 µM) against Escherichia coli KC-14; 0.025 µg/mL in test [8]; 0.2 µg/mL (≈ 0.555 µM) in test [9]. The MIC in test [10] was 1.56 µg/mL (≈ 4.33 µM); in test [11] it was 0.1 µg/mL (≈ 0.277 µM); in test [18] it was 0.1 µg/mL (≈ 0.277 µM); in test [12] (Staphylococcus aureus, IID803, read-out: Minimum inhibitory concentration (MIC)), 0.05 µg/mL (≈ 0.139 µM); in test [13], 0.2 µg/mL; in test [14], 0.2 µg/mL (≈ 0.555 µM). In addition, the MIC in [15] was 0.78 µg/mL (≈ 2.16 µM); in [16] it was 1.56 µg/mL (≈ 4.33 µM); against Shigella sonnei EW-33 it was 0.1 µg/mL (≈ 0.277 µM); in [17] it was 3.13 µg/mL (≈ 8.69 µM).
